One series relates to neuroprotection assays. Set-up: method as in PMID 22194796. The following applies: cited from earlier work.
In a further series the test system is C57BL/6J mice. Briefly: fear conditioning, scopolamine induced memory impairment. It counts as in vivo. The following applies: scopolamine 1 mg/kg i.p.; J147 200 ppm, donepezil 20 ppm in food; vs scopolamine. The procedure:
A total of 60 male mice aged eight weeks were housed 4 per cage and were divided into five groups with 12 mice per group. Treatments were administered in the food (TestDiet® 5015, Richmond, IN, USA) for a period of two weeks before commencement of behavioral testing. […] Following two weeks of treatment, memory impairment was induced by intraperitoneal (i.p.) injection of scopolamine (1 mg/kg) 30 minutes prior to each of the following behavioral tests: Y-maze, probe trial of the water maze and contextual and cued fear conditioning. Mice were allowed to rest for two days between each behavior test. All mice received scopolamine except for one of the control groups, which received saline as a control. Mice were sacrificed 24 hours after the last behavioral test for tissue harvesting.
Fear conditioning to either a cue or a context represents a form of associative learning. The read-out that is measured in contextual and cued fear conditioning is a freezing response that occurs following the pairing of an unconditioned stimulus (US), such as a foot shock, with a conditioned stimulus (CS), such as a particular context or cue (tone). The mouse will freeze if it remembers and associates that environment with the aversive stimulus. The hippocampus and the amygdala are required for fear memory where the hippocampus is involved in the formation and retrieval of context fear associations and the amygdala is involved in conditioning and recall of associations to contextual and discrete cues. This assay used fear conditioning chambers from Med Associates Inc. with Video Freeze Software (Med Associates Inc, St. Albans, VT, USA). On Day 1, mice were trained by allowing them to explore the chamber for 120 sec, mice were then presented with a 30-sec tone (2 kHz with 85 dB intensity) immediately followed by a 2-sec foot shock (0.7 mA). The tone-shock pairing was repeated following a 30-sec interval and the mice were again allowed to explore for 120 sec before removing them from the chamber. On Day 2, contextual memory, which requires a functioning hippocampus, was tested by placing the mice in the chambers and allowing them to explore for the same length of time as the previous day but without the tone and the shock. On Day 3, cued or emotional memory was tested, which relies on both hippocampus and amygdala. […] On Day 2, the time spent freezing is measured over the entire time in the chamber. […] The percentage of time spent freezing by each mouse is averaged per group and then groups can be compared and P-values calculated to determine statistical significance. On Day 3, the percentage of time spent freezing during the two tones is averaged per group, and then groups can be compared and P-values calculated to determine statistical significance. […]

Another series deals with BDNF. More on the design: method as in PMID 22194796. The following applies: normal rats; cited from earlier work.
The test system of another series is mice. Briefly: acute toxicity in mice (Absorption Systems). It counts as in vivo. The following applies: 2 g/kg, oral, maximum testable dose.
Series [1] has as its system huAPP/PS1 mice. Briefly: fear conditioning assay in aged huAPP/PS1 mice. The following applies: 200 ppm in food for three months. In kind it is in vivo. The procedure: (§1) The APPswe/PS1ΔE9 transgenic mice have been previously characterized. The line 85 mice carry two transgenes, the mouse/human chimeric APP/Swe, linked to Swedish FAD and human PS1ΔE9. At 20 months of age both male and female transgenic mice were fed a high fat diet (Harlan Tekland, Madison, WI, USA) with and without J147 (200 ppm, 10 mg/kg/day). Treatment continued for three months and was followed by behavior testing and sacrifice of mice for tissue harvesting. […] (Data not shown).
Fear conditioning to either a cue or a context represents a form of associative learning. The read-out that is measured in contextual and cued fear conditioning is a freezing response that occurs following the pairing of an unconditioned stimulus (US), such as a foot shock, with a conditioned stimulus (CS), such as a particular context or cue (tone). The mouse will freeze if it remembers and associates that environment with the aversive stimulus. […] On Day 2, the time spent freezing is measured over the entire time in the chamber. […] The percentage of time spent freezing by each mouse is averaged per group and then groups can be compared and P-values calculated to determine statistical significance. On Day 3, the percentage of time spent freezing during the two tones is averaged per group, and then groups can be compared and P-values calculated to determine statistical significance. […]

A further series relates to PC12 cells. Briefly: neurite outgrowth of PC12 cells with HT22 growth conditioned medium. In kind it is cell-based. The procedure: The HT22 cell line was used to make growth conditioned medium. HT22 is a nerve cell line derived from mouse brain and is widely used to study nerve cell physiology. To make HT22 growth conditioned medium, cells were grown in DMEM with 10% fetal calf serum. Then, semiconfluent cultures were washed three times with serum-free DMEM and cultured overnight in a reduced volume of DMEM in the presence or absence of 100 nM J147. The following day, the growth conditioned medium was collected and centrifuged at 10,000 × g to remove detached cells. To determine the effect of the conditioned medium on NGF-induced neurite outgrowth, PC12 cells were dissociated and plated on polyornithine-coated tissue culture dishes in the following conditions: 1) HT22 conditioned medium, 2) J147 treated HT22 conditioned medium, 3) DMEM alone plus J147, 4) DMEM plus NGF at 50 nanograms per ml, 5) J147 treated HT22 conditioned medium pre-incubated for one hour with 10 μg/ml anti-NGF and N2 supplement (Invitrogen). N2 supplement, which contains transferrin, was used in the presence of antibody to minimize the possibility that antibody protein non-specifically modified cell-substrate from adhesion and therefore neurite outgrowth. Phase contrast photographs were taken 24 hrs later.

In series [2] the test system is huAPP/PS1 mice. Briefly: two-day water maze in aged huAPP/PS1 mice. The following applies: 200 ppm in food for three months, vs AD control. It counts as in vivo. The procedure:
as §1
Spatial memory was determined using the two-day water maze in 23-month-old huAPPswe/PS1 transgenic mice fed J147 at 200 ppm in food for the previous three months. The protocol was adapted from a publication by Gulinello and colleagues. Water temperature remained at 27°C throughout the experiment. The goal platform was positioned 45 cm from the outside wall in the north-west quadrant of the maze for all groups and all trials. Day 1 of the two-day water maze procedure involved training the mice to find the platform using cues located around the pool within a 180 s time frame. […] The time it took each mouse to find the hidden platform was measured as escape latency. […] All trials were recorded using the EthoVision Software and statistics were computed using GraphPad Instat software (GraphPad Software, San Diego, CA, USA).

Each structure is given as a SMILES string. “Also recorded” adds a separate entry of the source.

Regarding `COc1cccc(/C=N/N(C(=O)C(F)(F)F)c2ccc(C)cc2C)c1` [J147, (E)-N-(2,4-dimethylphenyl)-2,2,2-trifluoro-N'-(3methoxybenzyli-dene) acetohydrazide], the half-maximal effective concentration (EC50) with neuroprotection assays is less than 100 nM. In the series with C57BL/6J mice, the “contextual memory (freezing Day 2)” value was “it was not significant” and the “cued memory (freezing in response to the tone, Day 3)” value was “neither effect was significant”. In addition, in the series on BDNF, the “levels of BDNF in the hippocampus” value was “increases the levels of BDNF”. Moreover, the “penetration in the Caco-2 assay” value with Caco-2 is “moderate and symmetrical penetration”. Moreover, the acute toxicity entry in the series on mice is “no oral toxicity; also recorded: negative results”. Further, in the series with huAPP/PS1 mice [1], the “contextual fear conditioning, freezing Day 2” value is given as “rescued” and the “cued fear conditioning, freezing Day 3” value is listed as “no significant difference between the groups”. Moreover, in the series on PC12 cells (100 nM J147 in fresh DMEM), the “neurite outgrowth, fresh DMEM plus J147” value is listed as “did not”. Moreover, the “neurite outgrowth, conditioned medium from J147 treated HT22 cells” value in the series on PC12 cells (HT22 cells incubated overnight with 100 nM J147, 24 hrs) was “promoted neurite outgrowth”. Moreover, in the series on huAPP/PS1 mice [2], the “spatial navigational memory (escape latency, hidden platform Day 2)” value was “significantly improved the spatial navigational memory”.
